Earlier results in patent publication US20090023668A1, “Method for treating blepharitis” (priority 2006, published 2009).

Conditions: administered to an ocular area at a concentration of 0.1%

## C[C@@H]1C[C@H]2[C@@H]3CCC4=CC(=O)C=C[C@]4(C)[C@@]3(F)[C@@H](O)C[C@]2(C)[C@@]1(O)C(=O)CO [dexamethasone]
  effect on intraocular pressure: can result in an increase in intraocular pressure
